Measurements as given in ChEMBL document CHEMBL1201862, “PubChem BioAssay data set” (2004).
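Method: 48-hour compound exposure of cells in 96-well plates, five concentrations, linear interpolation of endpoints. GI50 = concentration required for 50% inhibition of growth.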 The source made the active and inactive calls. Rule as the data show it: active = GI50 up to about 1.1 µM and inactive = higher.

How the values were obtained:
Assay in all cases: DTP human tumour cell line panel, 48 h
A498 = test system: A498
NCI-H226 = test system: NCI-H226
HCT-15 = test system: HCT-15
ACHN = test system: ACHN
SN12C = test system: SN12C
SK-MEL-5 = test system: SK-MEL-5
786-0 = test system: 786-0
OVCAR-4 = test system: OVCAR-4
EKVX = test system: EKVX
HCC 2998 = test system: HCC 2998
SNB-75 = test system: SNB-75
Malme-3M = test system: Malme-3M
U-251 = test system: U-251
SK-OV-3 = test system: SK-OV-3
SNB-19 = test system: SNB-19
SF-539 = test system: SF-539
MOLT-4 = test system: MOLT-4
SR = test system: SR

Row | SMILES | GI50 (A498) | GI50 (NCI-H226) | GI50 (HCT-15) | GI50 (ACHN) | GI50 (SN12C) | GI50 (SK-MEL-5) | GI50 (786-0) | GI50 (OVCAR-4) | GI50 (EKVX) | GI50 (HCC 2998) | GI50 (SNB-75) | GI50 (Malme-3M) | GI50 (U-251) | GI50 (SK-OV-3) | GI50 (SNB-19) | GI50 (SF-539) | GI50 (MOLT-4) | GI50 (SR)
1 | C#CCOCn1cnc2c(Sc3c([N+](=O)[O-])ncn3C)ncnc21 | > 100 µM (inactive) | > 100 µM (inactive) | > 100 µM | > 100 µM (inactive) | > 100 µM (inactive) | > 100 µM (inactive) | > 100 µM (inactive) | 87.5 µM (inactive) | > 100 µM (inactive) | > 100 µM (inactive) | 22.8 µM (inactive) | > 100 µM (inactive) | > 100 µM (inactive) | > 100 µM (inactive) | > 100 µM (inactive) |  |  | 
2 | CC12OC3CC(O1)C1(C=O)C4CCC5(C)C(c6ccc(=O)oc6)CCC5(O)C4CCC1(C3)O2 (stereo not drawn) | 0.33 µM (active) | 0.417 µM (active) | 0.212 µM | 0.0476 µM (active) | 0.0621 µM (active) | 0.0895 µM (active) | 0.122 µM (active) | 0.155 µM (active) |  | 0.56 µM (active) | 0.252 µM (active) | 0.198 µM (active) | 0.293 µM (active) | 0.213 µM (active) | 0.573 µM (active) | 0.102 µM (active) | 0.0344 µM (active) | 0.0498 µM (active)
3 | O=C1CC(c2c(-c3ccccc3)[nH]c3ccccc23)C(=O)N1 (stereo not drawn) | 90.2 µM (inactive) | > 100 µM (inactive) | > 100 µM | > 100 µM (inactive) |  | > 100 µM (inactive) | > 100 µM (inactive) | > 100 µM (inactive) | > 100 µM (inactive) | > 100 µM (inactive) | 35.4 µM (inactive) | > 100 µM (inactive) | > 100 µM (inactive) | > 100 µM (inactive) |  | > 100 µM (inactive) | > 100 µM (inactive) | 
4 | Cc1ccc(C2(O)CC(c3ccc([N+](=O)[O-])o3)=NN2C(=O)COc2ccccc2Cl)cc1 (stereo not drawn) | 12.9 µM (inactive) | 50.5 µM (inactive) | 4.68 µM | 5.08 µM (inactive) | 8.22 µM (inactive) | 2.75 µM (inactive) | 5.75 µM (inactive) | 17.3 µM (inactive) | 13.6 µM (inactive) | 10.4 µM (inactive) | 15.3 µM (inactive) | 13.8 µM (inactive) | 9.68 µM (inactive) | 81.1 µM (inactive) | 14.8 µM (inactive) | 17.4 µM (inactive) | 3.91 µM (inactive) | 3.24 µM (inactive)
5 | O=C1c2cccc(O)c2C(=O)c2cccc(O)c21 [ANTHRARUFIN] | > 100 µM (inactive) | > 100 µM (inactive) | > 100 µM | > 100 µM (inactive) | > 100 µM (inactive) |  | > 100 µM (inactive) | > 100 µM (inactive) | > 100 µM (inactive) | > 100 µM (inactive) | > 100 µM (inactive) |  | > 100 µM (inactive) |  | > 100 µM (inactive) | > 100 µM (inactive) | > 100 µM (inactive) | 
6 | CC1NS(=O)(=O)N(C)C1=O (stereo not drawn) |  | > 100 µM (inactive) | > 100 µM | > 100 µM (inactive) | > 100 µM (inactive) | > 100 µM (inactive) | > 10 µM (inactive) | > 100 µM (inactive) |  | > 100 µM (inactive) | 81.8 µM (inactive) | > 100 µM (inactive) | > 100 µM (inactive) | > 100 µM (inactive) |  | > 100 µM (inactive) | > 100 µM (inactive) | > 100 µM (inactive)
7 | Nc1nc(O)c2c(ncn2CCO)n1 |  | > 100 µM (inactive) | > 100 µM | > 100 µM (inactive) | > 100 µM (inactive) |  | > 100 µM (inactive) |  | > 100 µM (inactive) | > 100 µM (inactive) | > 100 µM (inactive) | > 100 µM (inactive) | > 100 µM (inactive) | > 100 µM (inactive) | > 100 µM (inactive) | > 100 µM (inactive) | > 100 µM (inactive) | > 100 µM (inactive)
8 | CC(C(=O)c1ccc(O)cc1)C1(O)C(=O)Nc2c(Cl)cc(Cl)cc21 (stereo not drawn) | > 49.1 µM (inactive) | 19.1 µM (inactive) | 71.6 µM | 16.6 µM (inactive) | 44.9 µM (inactive) | 17.1 µM (inactive) | 48.1 µM (inactive) | 21.7 µM (inactive) | 49.3 µM (inactive) | > 100 µM (inactive) | 47.6 µM (inactive) | > 100 µM (inactive) | > 78 µM (inactive) | > 100 µM (inactive) | > 77.6 µM (inactive) | 51.2 µM (inactive) | 28.9 µM (inactive) | 
9 | NC1=NS(=O)(=O)Nc2nc(-c3ccccc3)c(-c3ccccc3)nc21 |  | > 100 µM (inactive) | > 100 µM | > 100 µM (inactive) | > 100 µM (inactive) | > 100 µM (inactive) | > 100 µM (inactive) | > 100 µM (inactive) | > 100 µM (inactive) | > 100 µM (inactive) | > 100 µM (inactive) | > 100 µM (inactive) | > 100 µM (inactive) | > 100 µM (inactive) | > 100 µM (inactive) | > 100 µM (inactive) | > 100 µM (inactive) | > 100 µM (inactive)
